“And” between values parts separate entries of the source, which are not always exact repeats. Equal values may be shown once. Read-outs that look alike come from different tables or passages of the source. Each block holds one compound with its values, some of them ahead of it.
What was measured:
CDK2–cyclin A = biological target: T1, CDK2–cyclin A (Homo sapiens, UniProt P24941); assay: Lanthascreen kinase binding assay, CDK2
T1 construct: purchased Thermo Fisher
Method: Lanthascreen experiments were performed using commercially available reagents (Thermo Fisher) and according to the manufacturer’s instructions.

CDK12–cyclin K and DDB1 = biological target: T2, CDK12–cyclin K and DDB1 (Homo sapiens, UniProt Q16531+Q9NYV4, K965R); assay: TR-FRET ternary complex formation assay (compound titration); type: binding
T2 construct: His6–CDK12 (a.a. 713–1,052); full-length or beta-propeller B domain deletion (ΔBPB: a.a. 396–705 deleted) constructs of His6–DDB1ΔBPB, StrepII–Avi–DDB1, or His6–Spy–DDB1; made in house; host or cells: Trichoplusia ni High Five insect cells (baculovirus)
Summary of the method: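 Signal was the ratio of 520 nm to 490 nm fluorescence, measured after a 70 μs delay that reduced background.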

[1] = tested on: cyclin K–eGFP degradation reporter; assay: Cyclin K reporter stability analysis (dual-color cyclin K–eGFP reporter); type: cell-based, human; conditions: source data sheet correlations; read-out: DC50
Summary of the method: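 Cells (HEK293T–Cas9, reporter-expressing) at 1 × 10^6 ml^−1; 5 h compound or DMSO; flow cytometry; gMFI eGFP ÷ mCherry on round mCherry-positive events; normalized to 3 DMSO controls.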

[2] = Compound 1.02544 nM, raw replicates, experiment r1-r11
[3] = Compound 3.15521 nM, raw replicates, experiment r1-r11
[4] = Compound 9.46563 nM, raw replicates, experiment r1-r11
[5] = Compound 31.5521 nM, raw replicates, experiment r1-r11
[6] = Compound 99.3891 nM, raw replicates, experiment r1-r11
[7] = Compound 315.521 nM, raw replicates, experiment r1-r11
[8] = Compound 3155.21 nM, raw replicates, experiment r1-r11
[9] = Compound 10002 nM, raw replicates, experiment r1-r11
[10] = Supplementary Table 2, read-out: Lanthascreen IC50 [nM] CDK2
[11] = in vitro complex formation, 50 nM CDK12–cyclin K, 100 nM DDB1, text and figures, read-out: TR-FRET EC50
[12] = source data sheet correlations, read-out: TR-FRET EC50

T2 sequence (Q9NYV4 713-1052 K965R): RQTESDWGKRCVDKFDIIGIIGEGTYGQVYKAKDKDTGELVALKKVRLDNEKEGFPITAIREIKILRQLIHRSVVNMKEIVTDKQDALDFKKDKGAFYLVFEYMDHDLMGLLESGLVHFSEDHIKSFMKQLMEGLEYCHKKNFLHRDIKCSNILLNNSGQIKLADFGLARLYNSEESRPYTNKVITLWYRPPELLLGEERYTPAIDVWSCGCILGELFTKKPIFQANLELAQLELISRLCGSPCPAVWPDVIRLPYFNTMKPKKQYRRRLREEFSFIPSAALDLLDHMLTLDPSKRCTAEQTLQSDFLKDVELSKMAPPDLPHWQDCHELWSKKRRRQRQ
T2 sequence (O75909 1-267 partner): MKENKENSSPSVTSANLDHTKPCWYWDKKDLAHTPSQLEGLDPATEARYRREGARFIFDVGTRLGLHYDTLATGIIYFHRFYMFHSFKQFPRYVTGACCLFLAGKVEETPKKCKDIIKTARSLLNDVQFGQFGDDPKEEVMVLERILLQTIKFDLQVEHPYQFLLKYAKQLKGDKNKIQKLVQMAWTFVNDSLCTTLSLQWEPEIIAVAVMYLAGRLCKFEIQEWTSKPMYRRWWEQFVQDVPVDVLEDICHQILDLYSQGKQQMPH
T2 sequence (Q16531 whole entry): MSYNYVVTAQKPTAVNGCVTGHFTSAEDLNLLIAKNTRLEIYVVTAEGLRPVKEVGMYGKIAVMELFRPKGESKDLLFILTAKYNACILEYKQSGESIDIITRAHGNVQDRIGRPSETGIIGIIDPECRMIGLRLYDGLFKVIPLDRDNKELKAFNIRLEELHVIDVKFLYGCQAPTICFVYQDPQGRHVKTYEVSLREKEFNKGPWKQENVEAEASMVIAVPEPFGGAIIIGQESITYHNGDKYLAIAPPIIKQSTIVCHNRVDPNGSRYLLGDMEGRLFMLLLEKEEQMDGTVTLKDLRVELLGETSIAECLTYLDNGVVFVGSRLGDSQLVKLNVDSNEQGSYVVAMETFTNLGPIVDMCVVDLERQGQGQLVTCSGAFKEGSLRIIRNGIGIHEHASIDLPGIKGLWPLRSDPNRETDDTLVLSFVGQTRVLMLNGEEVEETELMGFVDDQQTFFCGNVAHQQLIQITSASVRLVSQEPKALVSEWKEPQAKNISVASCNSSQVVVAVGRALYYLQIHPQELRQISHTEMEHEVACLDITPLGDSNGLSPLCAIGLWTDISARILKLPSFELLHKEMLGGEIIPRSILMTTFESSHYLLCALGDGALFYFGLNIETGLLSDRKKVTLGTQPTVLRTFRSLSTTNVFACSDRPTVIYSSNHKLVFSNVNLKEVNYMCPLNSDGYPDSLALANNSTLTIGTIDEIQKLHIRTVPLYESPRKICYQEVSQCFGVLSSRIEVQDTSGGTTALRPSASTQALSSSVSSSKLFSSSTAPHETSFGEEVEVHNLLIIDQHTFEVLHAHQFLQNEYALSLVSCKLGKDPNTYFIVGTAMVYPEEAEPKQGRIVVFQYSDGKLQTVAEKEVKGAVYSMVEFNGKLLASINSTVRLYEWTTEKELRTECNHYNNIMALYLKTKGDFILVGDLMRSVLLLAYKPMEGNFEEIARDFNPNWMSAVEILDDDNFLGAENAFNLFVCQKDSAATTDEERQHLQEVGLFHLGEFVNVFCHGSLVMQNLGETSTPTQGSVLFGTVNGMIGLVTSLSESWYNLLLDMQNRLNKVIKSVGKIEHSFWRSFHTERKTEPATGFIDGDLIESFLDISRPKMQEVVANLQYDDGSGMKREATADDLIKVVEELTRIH

Lanthascreen signal, sheet CDK2 (CDK2–cyclin A; [2]): 0.01165 and 0.01109
Lanthascreen signal, sheet CDK2 (CDK2–cyclin A; [3]): 0.008478 and 0.00993
Lanthascreen signal, sheet CDK2 (CDK2–cyclin A; Compound 4.57247 nM, experiment r25-r34): 0.01637
Lanthascreen signal, sheet CDK2 (CDK2–cyclin A; [4]): 0.009994 and 0.009998
Lanthascreen signal, sheet CDK2 (CDK2–cyclin A; Compound 13.7174 nM, experiment r25-r34): 0.01615
Lanthascreen signal, sheet CDK2 (CDK2–cyclin A; [5]): 0.01039 and 0.01091
Lanthascreen signal, sheet CDK2 (CDK2–cyclin A; Compound 41.1523 nM, experiment r25-r34): 0.01569
Lanthascreen signal, sheet CDK2 (CDK2–cyclin A; [6]): 0.0115 and 0.01029
Lanthascreen signal, sheet CDK2 (CDK2–cyclin A; Compound 123.457 nM, experiment r25-r34): 0.01519
Lanthascreen signal, sheet CDK2 (CDK2–cyclin A; [7]): 0.008046 and 0.01008
Lanthascreen signal, sheet CDK2 (CDK2–cyclin A; Compound 370.37 nM, experiment r25-r34): 0.01387
Lanthascreen signal, sheet CDK2 (CDK2–cyclin A; [8]): 0.007483 and 0.007205
Lanthascreen signal, sheet CDK2 (CDK2–cyclin A; Compound 3333.33 nM, experiment r25-r34): 0.009102
Lanthascreen signal, sheet CDK2 (CDK2–cyclin A; Compound 10000 nM, experiment r25-r34): 0.006383
Lanthascreen signal, sheet CDK2 (CDK2–cyclin A; [9]): 0.003415 and 0.004039
IC50 (CDK2–cyclin A; [10]): 6120 nM
TR-FRET signal at compound concentration 0.468 nM (CDK12–cyclin K and DDB1; compound concentration 0.468 nM, raw replicate titration data): 0.2078 and 0.3464 and 0.3268 and 0.2028
TR-FRET signal at compound concentration 2.16 nM (CDK12–cyclin K and DDB1; compound concentration 2.16 nM, raw replicate titration data): 0.3181 and 0.4574 and 0.408 and 0.306
TR-FRET signal at compound concentration 3.6 nM (CDK12–cyclin K and DDB1; compound concentration 3.6 nM, raw replicate titration data): 0.571 and 0.665 and 0.6145 and 0.5357
TR-FRET signal at compound concentration 7.92001 nM (CDK12–cyclin K and DDB1; compound concentration 7.92001 nM, raw replicate titration data): 1.164 and 1.12 and 0.9555 and 1.048
TR-FRET signal at compound concentration 15.84 nM (CDK12–cyclin K and DDB1; compound concentration 15.84 nM, raw replicate titration data): 2.581 and 2.125 and 1.889 and 2.1704
TR-FRET signal at compound concentration 30.96 nM (CDK12–cyclin K and DDB1; compound concentration 30.96 nM, raw replicate titration data): 3.773 and 3.741 and 3.496 and 3.714
TR-FRET signal at compound concentration 62.6401 nM (CDK12–cyclin K and DDB1; compound concentration 62.6401 nM, raw replicate titration data): 3.949 and 4.21 and 4.046 and 3.965
TR-FRET signal at compound concentration 125.28 nM (CDK12–cyclin K and DDB1; compound concentration 125.28 nM, raw replicate titration data): 3.981 and 4.358 and 4.135 and 3.99
TR-FRET signal at compound concentration 244.8 nM (CDK12–cyclin K and DDB1; compound concentration 244.8 nM, raw replicate titration data): 3.942 and 4.1851 and 4.076 and 4.006
TR-FRET signal at compound concentration 993.601 nM (CDK12–cyclin K and DDB1; compound concentration 993.601 nM, raw replicate titration data): 4.043 and 4.296 and 4.229 and 3.955
TR-FRET signal at compound concentration 2001.6 nM (CDK12–cyclin K and DDB1; compound concentration 2001.6 nM, raw replicate titration data): 4.148 and 4.166 and 4.035 and 3.981
EC50 (CDK12–cyclin K and DDB1; [11]): 15 ± 1 nM
EC50 (CDK12–cyclin K and DDB1; [12]): 15.3 nM
DC50 [1]: 1 nM
SMILES: Cc1cc2nc(CNc3nc(N4CCN(C)CC4)nc4c(Br)cnn34)[nH]c2cc1C [DS73, reference compound]

Lanthascreen signal, sheet CDK2 (CDK2–cyclin A; Compound 0.038147 nM, raw replicates, experiment r13-r23): 0.01269 and 0.01279
Lanthascreen signal, sheet CDK2 (CDK2–cyclin A; Compound 0.152588 nM, raw replicates, experiment r13-r23): 0.01374 and 0.01273
Lanthascreen signal, sheet CDK2 (CDK2–cyclin A; Compound 0.610352 nM, raw replicates, experiment r13-r23): 0.01372 and 0.01331
Lanthascreen signal, sheet CDK2 (CDK2–cyclin A; [2]): 0.009631 and 0.01041
Lanthascreen signal, sheet CDK2 (CDK2–cyclin A; [3]): 0.01056 and 0.008974
Lanthascreen signal, sheet CDK2 (CDK2–cyclin A; [4]): 0.009472 and 0.0097
Lanthascreen signal, sheet CDK2 (CDK2–cyclin A; Compound 9.76563 nM, raw replicates, experiment r13-r23): 0.01395 and 0.01369
Lanthascreen signal, sheet CDK2 (CDK2–cyclin A; [5]): 0.0114 and 0.01012
Lanthascreen signal, sheet CDK2 (CDK2–cyclin A; Compound 39.0625 nM, raw replicates, experiment r13-r23): 0.01257 and 0.0126
Lanthascreen signal, sheet CDK2 (CDK2–cyclin A; [6]): 0.01033 and 0.009406
Lanthascreen signal, sheet CDK2 (CDK2–cyclin A; Compound 156.25 nM, raw replicates, experiment r13-r23): 0.01318 and 0.01113
Lanthascreen signal, sheet CDK2 (CDK2–cyclin A; [7]): 0.009414 and 0.009861
Lanthascreen signal, sheet CDK2 (CDK2–cyclin A; Compound 625 nM, raw replicates, experiment r13-r23): 0.01295 and 0.0131
Lanthascreen signal, sheet CDK2 (CDK2–cyclin A; Compound 2500 nM, raw replicates, experiment r13-r23): 0.01303 and 0.01312
Lanthascreen signal, sheet CDK2 (CDK2–cyclin A; [8]): 0.008384 and 0.008441
Lanthascreen signal, sheet CDK2 (CDK2–cyclin A; Compound 10000 nM, raw replicates, experiment r13-r23): 0.01252 and 0.01202
Lanthascreen signal, sheet CDK2 (CDK2–cyclin A; [9]): 0.01042 and 0.01107
IC50 (CDK2–cyclin A; Lanthascreen, read-out: CDK2 inhibition): > 10000 nM
IC50 (CDK2–cyclin A; [10]): > 10000 nM
TR-FRET signal (CDK12–cyclin K and DDB1; compound concentration 0.468 nM): 0.1979 and 0.1985 and 0.1957
TR-FRET signal (CDK12–cyclin K and DDB1; compound concentration 2.16 nM): 0.2749 and 0.2453 and 0.2785
TR-FRET signal (CDK12–cyclin K and DDB1; compound concentration 7.92001 nM): 0.7305 and 0.6786 and 0.7304
TR-FRET signal (CDK12–cyclin K and DDB1; compound concentration 30.96 nM): 1.762 and 1.75 and 1.847
TR-FRET signal (CDK12–cyclin K and DDB1; compound concentration 125.28 nM): 3.077 and 3.1244 and 3.038
EC50 (CDK12–cyclin K and DDB1; [11]): 43 ± 13 nM
EC50 (CDK12–cyclin K and DDB1; sheet MOESM7, read-out: log TR-FRET EC50 (converted)): 42.7 nM
EC50 (CDK12–cyclin K and DDB1; [12]): 42.7 nM
DC50 [1]: 493 nM
SMILES: Cc1cccc(Nc2nc(CC(=O)Nc3ncc(C)s3)cs2)n1 [HQ461]
TR-FRET signal (CDK12–cyclin K and DDB1; compound concentration 3.6 nM): 0.4419 and 0.4117 and 0.4333 and 0.5417 and 0.5175
TR-FRET signal (CDK12–cyclin K and DDB1; compound concentration 15.84 nM): 1.213 and 1.144 and 1.137 and 1.215 and 1.133
TR-FRET signal (CDK12–cyclin K and DDB1; compound concentration 62.6401 nM): 2.4486 and 2.52 and 2.516 and 2.475 and 2.32
TR-FRET signal (CDK12–cyclin K and DDB1; compound concentration 244.8 nM): 3.496 and 3.492 and 3.484 and 3.752 and 3.554
TR-FRET signal (CDK12–cyclin K and DDB1; compound concentration 993.601 nM): 3.886 and 3.922 and 3.8902 and 4.115 and 3.832
TR-FRET signal (CDK12–cyclin K and DDB1; compound concentration 2001.6 nM): 3.927 and 3.936 and 3.967 and 4.085 and 3.674

Source: article PMC10746543, “Design principles for cyclin K molecular glue degraders” (Nature Chemical Biology, 2023)
